Experimental data published in patent US10953109B2, “Application of GPR45 gene” (FUDAN UNIVERSITY, priority 2015, dated 2021).
“Also recorded” adds a separate entry of the source.

Assays:
[1] = test system: GPR45; experiment: RNA interference of GPR45 in primary culture cells of hypothalamuses of wild type fetal mice, RT-PCR; assay type: cell-based; settings: 10 pmol siRNA per well, transfection 72 h
Method: […]
For detection of POMC expression, primary cell RNA was extracted to perform reverse transcription to obtain cDNA, then real-time quantitative PCR detection was performed, and experiment steps were the same as embodiment 11. […]

[2] = test system: wild type mice; experiment: MTII injected into third intraventricular of wild type mice; body weight and fat; assay type: in vivo
Method: (§1) MTII is an agonist of MC3R/MC4R, can simulate a function of a POMC shorn product α-MSH and plays a role of suppressing appetite and promoting energy metabolism. […] When the mutant mice and wild type mice of control groups were injected with equal amounts of normal saline, the body weight was not influenced.

[3] = test system: GPR45^PB1/PB1 mice; experiment: MTII injected daily into third intraventricular of adult GPR45 homozygote obese mice; body weight and fat; assay type: in vivo
Method: as §1

[4] = wild type mice injected with MTII, six days
[5] = mutant mice, six days after administration, compared with normal saline control

| Substance | expression amount of GPR45 decreased [1] [%] | expression amount of POMC decreased [1] [%] | weight of gonadal white adipose tissues decreased [2, 4] [%] | weight of interscapular brown adipose tissues increased [2, 4] [%] | weight of retroperitoneal white adipose tissues decreased [2, 4] [%] | body weight decreased relative to the body weight before injection ([2]; wild type mice, six days after MTII was injected) [%] | body weight after three days after MTII was injected ([3]; GPR45^PB1/PB1 mice, three days) | fat content (FIG. 24B) ([3]; adult male GPR45 homozygote mice) | body weight (FIG. 24A) ([3]; adult male GPR45 homozygote mice, after six days) | increase of the body weight ([3]; daily injection, adult obese mice) | obesity caused by GPR45 mutations ([3]; intraventricular injection) | body weight decreased relative to the body weight before injection ([3]; mutant mice, six days after MTII was injected) [%] | weight of gonadal white adipose tissues decreased [3, 5] [%] | weight of interscapular brown adipose tissues decreased [3, 5] [%] | weight of retroperitoneal white adipose tissues decreased [3, 5] [%] |
| --- | --- | --- | --- | --- | --- | --- | --- | --- | --- | --- | --- | --- | --- | --- | --- |
| GPR45-siRNA: siRNA, sense 5′-CCGACAUCAUGCUGUCUUUAUTT-3′ (SEQ ID NO. 29), antisense 5′-AUAAAGACAGCAUGAUGUCGGTT-3′ (SEQ ID NO. 30) (chemistry not given here) | 53.4 | 30.7 |  |  |  |  |  |  |  |  |  |  |  |  |  |
| melanotan-2 [MTII] |  |  | 44.1 | 0.4 | 50.9 | 1.8 | reduced to the level of the body weight of the wild type mice | fat content decreases | body weight decreases | could be suppressed | obesity is suppressed; also recorded: effectively reverses the obesity | 13.6 | 48.5 | 50.4 | 66.7 |
